Tested on: 439559-082-T-J2-PDC spheroids viability
Test: Anticancer human tumor 439559-082-T-J2-PDC patient-derived colon adenocarcinoma cell line growth inhibition [GQUAD]
Settings: for IC50: curve of first compound; for viability, T/C: stronger effect = lower value
How it was run: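 Tumor cells were grown as complex spheroids with HUVEC endothelial cells and mesenchymal stem cells as stroma. G-quadruplex stabilizers were combined with targeted agents over half-log dilutions from near the clinical Cmax, or from 10 microM.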
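Also: spheroids exposed to the agents for 7 days before readout.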
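For viability, T/C in this document: percent of luminescence signal in DMSO vehicle wells taken as 100% viability.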

SMILES: Cn1ncnc1[C@H]1c2n[nH]c(=O)c3cc(F)cc(c23)N[C@@H]1c1ccc(F)cc1 + CN(C)c1ccc(Nc2c3ccc(NC(=O)CCN4CCCC4)cc3nc3cc(NC(=O)CCN4CCCC4)ccc23)cc1
- IC50 (second compound 0.0316 µM): > 316 nM
- IC50 (second compound 0.1 µM): > 316 nM
- IC50 (second compound 0.316 µM): > 316 nM
- IC50 (second compound 1 µM): > 316 nM
- IC50 (second compound 3.16 µM): > 316 nM
- IC50 (second compound 10 µM): > 316 nM
- viability, T/C (second compound 0.0316 µM, first compound 0.000999 µM): 94.6%
- viability, T/C (second compound 0.0316 µM, first compound 0.00316 µM): 97%
- viability, T/C (second compound 0.0316 µM, first compound 0.00999 µM): 104%
- viability, T/C (second compound 0.0316 µM, first compound 0.0316 µM): 96.3%
- viability, T/C (second compound 0.0316 µM, first compound 0.0999 µM): 95.9%
- viability, T/C (second compound 0.0316 µM, first compound 0.316 µM): 94.4%
- viability, T/C (second compound 0.1 µM, first compound 0.000999 µM): 99.6%
- viability, T/C (second compound 0.1 µM, first compound 0.00316 µM): 98.6%
- viability, T/C (second compound 0.1 µM, first compound 0.00999 µM): 90.7%
- viability, T/C (second compound 0.1 µM, first compound 0.0316 µM): 108%
- viability, T/C (second compound 0.1 µM, first compound 0.0999 µM): 94.4%
- viability, T/C (second compound 0.1 µM, first compound 0.316 µM): 85.3%
- viability, T/C (second compound 0.316 µM, first compound 0.000999 µM): 99.6%
- viability, T/C (second compound 0.316 µM, first compound 0.00316 µM): 106%
- viability, T/C (second compound 0.316 µM, first compound 0.00999 µM): 97%
- viability, T/C (second compound 0.316 µM, first compound 0.0316 µM): 94.4%
- viability, T/C (second compound 0.316 µM, first compound 0.0999 µM): 93.8%
- viability, T/C (second compound 0.316 µM, first compound 0.316 µM): 82.5%
- viability, T/C (second compound 1 µM, first compound 0.000999 µM): 96.8%
- viability, T/C (second compound 1 µM, first compound 0.00316 µM): 91.7%
- viability, T/C (second compound 1 µM, first compound 0.00999 µM): 96%
- viability, T/C (second compound 1 µM, first compound 0.0316 µM): 111%
- viability, T/C (second compound 1 µM, first compound 0.0999 µM): 96.8%
- viability, T/C (second compound 1 µM, first compound 0.316 µM): 92.5%
- viability, T/C (second compound 3.16 µM, first compound 0.000999 µM): 101%
- viability, T/C (second compound 3.16 µM, first compound 0.00316 µM): 102%
- viability, T/C (second compound 3.16 µM, first compound 0.00999 µM): 89.6%
- viability, T/C (second compound 3.16 µM, first compound 0.0316 µM): 99.2%
- viability, T/C (second compound 3.16 µM, first compound 0.0999 µM): 98.1%
- viability, T/C (second compound 3.16 µM, first compound 0.316 µM): 85.5%
- viability, T/C (second compound 10 µM, first compound 0.000999 µM): 104%
- viability, T/C (second compound 10 µM, first compound 0.00316 µM): 77.2%
- viability, T/C (second compound 10 µM, first compound 0.00999 µM): 91.5%
- viability, T/C (second compound 10 µM, first compound 0.0316 µM): 85.8%
- viability, T/C (second compound 10 µM, first compound 0.0999 µM): 99.6%
- viability, T/C (second compound 10 µM, first compound 0.316 µM): 85%

From PubChem BioAssay AID2060510 (Molecular Pharmacology Branch, DTP, NCI, 2025)
